{"source": "paper PMC11506356", "about": "“Selective Inhibition of Deamidated Triosephosphate Isomerase by Disulfiram, Curcumin, and Sodium Dichloroacetate: Synergistic Therapeutic Strategies for T-Cell Acute Lymphoblastic Leukemia in Jurkat Cells” (Biomolecules, 2024)", "key": {"[1]": {"target": "T1, deamidated triosephosphate isomerase (dTPI) (Homo sapiens, UniProt P60174, N16D)", "T1 construct": "gene TPI1; recombinant human TPI, His-TEV tag removed", "T1 sequence (P60174 2-249 N16D)": "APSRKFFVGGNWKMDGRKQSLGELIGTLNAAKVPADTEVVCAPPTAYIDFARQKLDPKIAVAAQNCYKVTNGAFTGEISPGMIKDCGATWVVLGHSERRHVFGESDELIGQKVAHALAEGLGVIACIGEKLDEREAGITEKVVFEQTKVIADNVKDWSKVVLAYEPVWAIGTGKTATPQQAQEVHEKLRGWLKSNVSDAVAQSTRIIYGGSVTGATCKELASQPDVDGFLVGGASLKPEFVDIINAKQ", "experiment": "recombinant enzyme inactivation ([…] h, […] °C; coupled NADH assay), ANS fluorescence", "type": "biochemical", "settings": "2 h; read-out: recombinant enzyme inactivation (2 h, 37 °C; coupled NADH assay), ANS fluorescen"}, "[2]": {"target": "T1, deamidated triosephosphate isomerase (dTPI)", "experiment": "recombinant enzyme inactivation ([…] h, […] °C; coupled NADH assay), Ellman free-thiol quantification, ANS fluorescence", "type": "biochemical", "settings": "2 h; read-out: recombinant enzyme inactivation (2 h, 37 °C; coupled NADH assay), Ellman free-th"}}}
{"smiles": "COc1cc(/C=C/C(=O)CC(=O)/C=C/c2ccc(O)c(OC)c2)ccc1O", "note": "[CU, curcumin]", "values": [{"measurement": "IC90", "setting": "[1]", "value": "~1500", "unit": "µM"}]}
{"smiles": "CCN(CC)C(=S)SSC(=S)N(CC)CC", "note": "[DS, disulfiram]", "values": [{"measurement": "IC100", "setting": "[2]", "value": 250, "unit": "µM"}]}
